Source: ChEMBL document CHEMBL1201861, “Genomics of Drug Sensitity in Cancer screening data, Wellcome Trust Sanger Institute”

Assays:
Assay in all cases: cells
LNCaP-Clone-FGC = format: functional, cell-based, Homo sapiens; conditions: Homo sapiens, LNCaP-Clone-FGC
Description: SANGER: Inhibition of human LNCaP-Clone-FGC cell growth in a cell viability assay.

SW982 = format: functional, cell-based; conditions: Homo sapiens;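 also: growth inhibition of SW982 cells, read out with a cell viability assay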
Description: SANGER: Inhibition of human SW982 cell growth in a cell viability assay.

D-392MG = format: functional, cell-based, Homo sapiens; conditions: Homo sapiens, D-392MG
CAL-51 = format: functional, cell-based, Homo sapiens; conditions: Homo sapiens, CAL-51;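 also: human CAL-51 cell line, growth inhibition read out via a cell viability assay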
Description: SANGER: Inhibition of human CAL-51 cell growth in a cell viability assay.

Ca-Ski = format: functional, cell-based; conditions: Homo sapiens;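 also: cell viability assay measuring inhibition of Ca-Ski cell growth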
Description: SANGER: Inhibition of human Ca-Ski cell growth in a cell viability assay.

SNU-387 = format: functional, cell-based, Homo sapiens; conditions: Homo sapiens, SNU-387
Description: SANGER: Inhibition of human SNU-387 cell growth in a cell viability assay.

NCI-H526 = format: functional, cell-based; conditions: Homo sapiens;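 also: growth inhibition of the human NCI-H526 cell line, measured by a cell viability assay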
Description: SANGER: Inhibition of human NCI-H526 cell growth in a cell viability assay.

Detroit 562 = format: functional, cell-based, Homo sapiens; conditions: Homo sapiens, Detroit 562;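 also: growth inhibition of human Detroit 562 cells, read out by a cell viability assay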
Description: SANGER: Inhibition of human Detroit562 cell growth in a cell viability assay.

MKN-1 = format: functional, cell-based, Homo sapiens; conditions: Homo sapiens, MKN-1;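 also: growth inhibition of human MKN1 cells, read out by a cell viability measurement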
Description: SANGER: Inhibition of human MKN1 cell growth in a cell viability assay.

M059J = format: functional, cell-based, Homo sapiens; conditions: Homo sapiens, M059J;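 also: growth inhibition of M059J cells, read out with a cell viability assay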
Description: SANGER: Inhibition of human M059J cell growth in a cell viability assay.

K5 = format: functional, cell-based, Homo sapiens; conditions: Homo sapiens, K5
Description: SANGER: Inhibition of human K5 cell growth in a cell viability assay.

NCI-H2030 = format: functional, cell-based, Homo sapiens; conditions: Homo sapiens, NCI-H2030;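 also: growth inhibition of human NCI-H2030 cells, read out by a cell viability assay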
Description: SANGER: Inhibition of human NCI-H2030 cell growth in a cell viability assay.

A204 = format: functional, cell-based, Homo sapiens; conditions: Homo sapiens, A204;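 also: growth inhibition of human A204 cells, read out with a cell viability assay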
Description: SANGER: Inhibition of human A204 cell growth in a cell viability assay.

SK-MEL-28 = format: functional, cell-based; conditions: Homo sapiens;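 also: growth inhibition of human SK-MEL-28 cells, read out with a cell viability assay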
Description: SANGER: Inhibition of human SK-MEL-28 cell growth in a cell viability assay.

IA-LM = format: functional, cell-based, Homo sapiens; conditions: Homo sapiens, IA-LM;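 also: cell viability assay measuring growth inhibition of human IA-LM cells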
Description: SANGER: Inhibition of human IA-LM cell growth in a cell viability assay.

MFE-280 = format: functional, cell-based, Homo sapiens; conditions: Homo sapiens, MFE-280;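 also: growth inhibition of MFE-280 cells, determined with a cell viability readout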
Description: SANGER: Inhibition of human MFE-280 cell growth in a cell viability assay.

SW13 = format: functional, cell-based, Homo sapiens; conditions: Homo sapiens, SW13;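 also: IC50 is inhibition of SW13 cell growth, read out with a cell viability assay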
Description: SANGER: Inhibition of human SW13 cell growth in a cell viability assay.

FTC-133 = format: functional, cell-based, Homo sapiens; conditions: Homo sapiens, FTC-133
GCT = format: functional, cell-based, Homo sapiens; conditions: Homo sapiens, GCT;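 also: GCT cell line proliferation inhibition, read out with a cell viability assay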
Description: SANGER: Inhibition of human GCT cell growth in a cell viability assay.

MHH-ES-1 = format: functional, cell-based, Homo sapiens; conditions: Homo sapiens, MHH-ES-1;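 also: cell growth inhibition measured by a cell viability assay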
Description: SANGER: Inhibition of human MHH-ES-1 cell growth in a cell viability assay.

KALS-1 = format: functional, cell-based, Homo sapiens; conditions: Homo sapiens, KALS-1;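 also: growth inhibition of KALS-1 cells, determined with a cell viability assay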
Description: SANGER: Inhibition of human KALS-1 cell growth in a cell viability assay.

KYSE-450 = format: functional, cell-based; conditions: Homo sapiens;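 also: cell growth inhibition measured by a viability assay in human KYSE-450 cells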
Description: SANGER: Inhibition of human KYSE-450 cell growth in a cell viability assay.

TYK-nu = format: functional, cell-based, Homo sapiens; conditions: Homo sapiens, TYK-nu;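 also: growth inhibition of human TYK-nu cells, read out by a cell viability assay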
Description: SANGER: Inhibition of human TYK-nu cell growth in a cell viability assay.

A4-Fuk = format: functional, cell-based; conditions: Homo sapiens;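 also: growth inhibition of A4-Fuk cells, read out by a cell viability assay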
Description: SANGER: Inhibition of human A4-Fuk cell growth in a cell viability assay.

LXF-289 cell line = format: functional, cell-based, Homo sapiens; conditions: Homo sapiens, LXF-289
Description: SANGER: Inhibition of human LXF-289 cell growth in a cell viability assay.

SCC-25 = format: functional, cell-based, Homo sapiens; conditions: Homo sapiens, SCC-25;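 also: growth inhibition of SCC-25 cells, measured with a cell viability assay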
Description: SANGER: Inhibition of human SCC-25 cell growth in a cell viability assay.

KMOE-2 = format: functional, cell-based; conditions: Homo sapiens;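 also: growth inhibition of human KMOE-2 cells, read out with a cell viability assay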
Description: SANGER: Inhibition of human KMOE-2 cell growth in a cell viability assay.

PANC-08-13 = format: functional, cell-based, Homo sapiens; conditions: Homo sapiens, PANC-08-13;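 also: cell growth inhibition, measured with a cell viability assay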
Description: SANGER: Inhibition of human PANC-08-13 cell growth in a cell viability assay.

DoTc2-4510 = format: functional, cell-based, Homo sapiens; conditions: Homo sapiens, DoTc2-4510
KYSE-270 = format: functional, cell-based, Homo sapiens; conditions: Homo sapiens, KYSE-270;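 also: cell growth inhibition measured with a viability assay in the human KYSE-270 line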
Description: SANGER: Inhibition of human KYSE-270 cell growth in a cell viability assay.

ASPC1 = format: functional, cell-based, Homo sapiens; conditions: Homo sapiens, ASPC1;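 also: growth inhibition of AsPC-1 cells, read out with a cell viability assay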
Description: SANGER: Inhibition of human AsPC-1 cell growth in a cell viability assay.

CAL-12T = format: functional, cell-based, Homo sapiens; conditions: Homo sapiens, CAL-12T;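 also: growth inhibition of human CAL-12T cells, read out with a cell viability assay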
Description: SANGER: Inhibition of human CAL-12T cell growth in a cell viability assay.

TE-12 = format: functional, cell-based; conditions: Homo sapiens;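 also: growth inhibition of TE-12 cells, read out by a cell viability assay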
Description: SANGER: Inhibition of human TE-12 cell growth in a cell viability assay.

HC-1 = format: functional, cell-based; conditions: Homo sapiens;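 also: growth inhibition of HC-1 cells measured by a cell viability assay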
Description: SANGER: Inhibition of human HC-1 cell growth in a cell viability assay.

HTC-C3 = format: functional, cell-based, Homo sapiens; conditions: Homo sapiens, HTC-C3;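 also: inhibition of cell growth, read out with a cell viability assay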
Description: SANGER: Inhibition of human HTC-C3 cell growth in a cell viability assay.

ES4 = format: functional, cell-based, Homo sapiens; conditions: Homo sapiens, ES4;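 also: growth inhibition of human ES4 cells, read out by a cell viability assay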
Description: SANGER: Inhibition of human ES4 cell growth in a cell viability assay.

HT = format: functional, cell-based; conditions: Homo sapiens
Description: SANGER: Inhibition of human HT cell growth in a cell viability assay.

LB2241-RCC = format: functional, cell-based, Homo sapiens; conditions: Homo sapiens, LB2241-RCC;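 also: cell viability assay measuring how strongly the cultured human renal carcinoma line is prevented from growing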
Description: SANGER: Inhibition of human LB2241-RCC cell growth in a cell viability assay.

LU-139 = format: functional, cell-based; conditions: Homo sapiens
Description: SANGER: Inhibition of human LU-139 cell growth in a cell viability assay.

SCH = format: functional, cell-based, Homo sapiens; conditions: Homo sapiens, SCH;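 also: growth inhibition of human SCH cells, read out in a cell viability assay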
Description: SANGER: Inhibition of human SCH cell growth in a cell viability assay.

DB = format: functional, cell-based; conditions: Homo sapiens
Description: SANGER: Inhibition of human DB cell growth in a cell viability assay.

NCI-H2126 = format: functional, cell-based, Homo sapiens; conditions: Homo sapiens, NCI-H2126;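 also: growth inhibition of the cancer cell line, determined with a cell viability readout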
Description: SANGER: Inhibition of human NCI-H2126 cell growth in a cell viability assay.

TGBC1TKB = format: functional, cell-based, Homo sapiens; conditions: Homo sapiens, TGBC1TKB;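 also: growth inhibition of TGBC1TKB cells, read out by a cell viability assay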
Description: SANGER: Inhibition of human TGBC1TKB cell growth in a cell viability assay.

NCI-H747 = format: functional, cell-based; conditions: Homo sapiens;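 also: growth inhibition of human NCI-H747 cells, read out by a cell viability assay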
Description: SANGER: Inhibition of human NCI-H747 cell growth in a cell viability assay.

HCC1419 = format: functional, cell-based, Homo sapiens; conditions: Homo sapiens, HCC1419;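 also: growth inhibition of human HCC1419 cells, read out as cell viability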
Description: SANGER: Inhibition of human HCC1419 cell growth in a cell viability assay.

NCI-H1623 = format: functional, cell-based, Homo sapiens; conditions: Homo sapiens, NCI-H1623;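 also: cell viability assay used as the read-out for growth inhibition of NCI-H1623 cells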
Description: SANGER: Inhibition of human NCI-H1623 cell growth in a cell viability assay.

PFSK-1 = format: functional, cell-based, Homo sapiens; conditions: Homo sapiens, PFSK-1;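 also: cell viability assay measuring how strongly compounds suppress growth of human PFSK-1 cells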
Description: SANGER: Inhibition of human PFSK-1 cell growth in a cell viability assay.

KYSE-510 = format: functional, cell-based, Homo sapiens; conditions: Homo sapiens, KYSE-510;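 also: cell viability readout used to measure how strongly growth of the cell line is suppressed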
Description: SANGER: Inhibition of human KYSE-510 cell growth in a cell viability assay.

RT-112 = format: functional, cell-based, Homo sapiens; conditions: Homo sapiens, RT-112
Description: SANGER: Inhibition of human RT-112 cell growth in a cell viability assay.

TGBC24TKB = format: functional, cell-based, Homo sapiens; conditions: Homo sapiens, TGBC24TKB;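 also: growth inhibition of human TGBC24TKB cells, read out with a cell viability assay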
Description: SANGER: Inhibition of human TGBC24TKB cell growth in a cell viability assay.

Lu-65 = format: functional, cell-based; conditions: Homo sapiens;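 also: growth inhibition of Lu-65 cancer cells, read out by a cell viability assay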
Description: SANGER: Inhibition of human LU-65 cell growth in a cell viability assay.

ATN-1 = format: functional, cell-based; conditions: Homo sapiens;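 also: growth inhibition of human ATN-1 cells, read out with a cell viability assay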
Description: SANGER: Inhibition of human ATN-1 cell growth in a cell viability assay.

`O=C(NOCC1CC1)c1ccc(F)c(F)c1Nc1ccc(I)cc1Cl` [CI-1040] gave an IC50 (LNCaP-Clone-FGC) of over 10 µM, an IC50 (SW982) of over 10 µM and an IC50 (D-392MG) of over 10 µM. It also gave an IC50 (CAL-51) of over 10 µM, an IC50 (Ca-Ski) of over 10 µM and an IC50 (SNU-387) of over 10 µM. For the same compound, the IC50 (NCI-H526) was over 10 µM, the IC50 (Detroit 562) was over 10 µM and the IC50 (MKN-1) was over 10 µM. For the same compound, the IC50 (M059J) was over 10 µM, the IC50 (K5) was 0.431 µM and the IC50 (NCI-H2030) was over 10 µM. The IC50 (A204) was over 10 µM, the IC50 (SK-MEL-28) was 0.304 µM and the IC50 (IA-LM) was over 10 µM. For the same compound, the IC50 (MFE-280) was 6.86 µM, the IC50 (SW13) was over 10 µM and the IC50 (FTC-133) was over 10 µM. It also gave an IC50 (GCT) of over 10 µM, an IC50 (MHH-ES-1) of over 10 µM and an IC50 (KALS-1) of over 10 µM. The IC50 (KYSE-450) was over 10 µM, the IC50 (TYK-nu) was 1.03 µM and the IC50 (A4-Fuk) was 1.57 µM. It also gave an IC50 (LXF-289 cell line) of over 10 µM, an IC50 (SCC-25) of 7.71 µM and an IC50 (KMOE-2) of 0.198 µM. The IC50 (PANC-08-13) was over 10 µM, the IC50 (DoTc2-4510) was 7.12 µM and the IC50 (KYSE-270) was over 10 µM. The IC50 (ASPC1) was 5.37 µM, the IC50 (CAL-12T) was 8.66 µM and the IC50 (TE-12) was 9.03 µM. It also gave an IC50 (HC-1) of over 10 µM, an IC50 (HTC-C3) of 0.465 µM and an IC50 (ES4) of 8.87 µM. It also gave an IC50 (HT) of over 10 µM, an IC50 (LB2241-RCC) of 2.86 µM and an IC50 (LU-139) of over 10 µM. For the same compound, the IC50 (SCH) was over 10 µM, the IC50 (DB) was 2.59 µM and the IC50 (NCI-H2126) was 9.01 µM. It also gave an IC50 (TGBC1TKB) of 7.89 µM, an IC50 (NCI-H747) of 4.69 µM and an IC50 (HCC1419) of over 10 µM. It also gave an IC50 (NCI-H1623) of over 10 µM, an IC50 (PFSK-1) of over 10 µM and an IC50 (KYSE-510) of over 10 µM. It also gave an IC50 (RT-112) of 1.59 µM, an IC50 (TGBC24TKB) of over 10 µM and an IC50 (Lu-65) of over 10 µM. The IC50 (ATN-1) was over 10 µM.

With `Nc1ccn([C@@H]2O[C@H](CO)[C@@H](O)[C@@H]2O)c(=O)n1` [CYTARABINE] the IC50 (LNCaP-Clone-FGC) was 1.31 µM, the IC50 (SW982) was 0.0912 µM and the IC50 (CAL-51) was 0.571 µM. It also gave an IC50 (Ca-Ski) of over 2 µM, an IC50 (SNU-387) of 0.289 µM and an IC50 (NCI-H526) of over 2 µM. The IC50 (Detroit 562) was over 2 µM, the IC50 (MKN-1) was 1.74 µM and the IC50 (M059J) was 1.82 µM. The IC50 (K5) was 0.0432 µM, the IC50 (NCI-H2030) was 1.05 µM and the IC50 (A204) was 0.311 µM. The IC50 (SK-MEL-28) was 0.799 µM, the IC50 (IA-LM) was over 2 µM and the IC50 (MFE-280) was over 2 µM. It also gave an IC50 (SW13) of 0.476 µM, an IC50 (FTC-133) of 1.39 µM and an IC50 (GCT) of 0.856 µM. For the same compound, the IC50 (MHH-ES-1) was 0.323 µM, the IC50 (KALS-1) was over 2 µM and the IC50 (KYSE-450) was 1.09 µM. It also gave an IC50 (TYK-nu) of 0.661 µM, an IC50 (A4-Fuk) of 1.17 µM and an IC50 (LXF-289 cell line) of 0.251 µM. For the same compound, the IC50 (SCC-25) was over 2 µM, the IC50 (KMOE-2) was 0.944 µM and the IC50 (PANC-08-13) was over 2 µM. It also gave an IC50 (DoTc2-4510) of 1.6 µM, an IC50 (KYSE-270) of 0.849 µM and an IC50 (ASPC1) of 1.39 µM. The IC50 (CAL-12T) was over 2 µM, the IC50 (TE-12) was over 2 µM and the IC50 (HC-1) was 1.08 µM. The IC50 (HTC-C3) was 0.459 µM, the IC50 (ES4) was 0.214 µM and the IC50 (HT) was over 2 µM. It also gave an IC50 (LB2241-RCC) of 0.0553 µM, an IC50 (LU-139) of over 2 µM and an IC50 (SCH) of over 2 µM. The IC50 (DB) was 0.246 µM, the IC50 (NCI-H2126) was over 2 µM and the IC50 (TGBC1TKB) was over 2 µM. For the same compound, the IC50 (NCI-H747) was over 2 µM, the IC50 (HCC1419) was over 2 µM and the IC50 (NCI-H1623) was 0.536 µM. It also gave an IC50 (PFSK-1) of over 2 µM, an IC50 (KYSE-510) of 0.306 µM and an IC50 (RT-112) of 0.502 µM. It also gave an IC50 (TGBC24TKB) of 1.85 µM, an IC50 (Lu-65) of over 2 µM and an IC50 (ATN-1) of 0.366 µM.
